Tests used:
[1] = biological target: ROCK2 (Homo sapiens (Human), UniProt O75116); assay: FRET-based Z'-Lyte kinase assay, ROCK2; type: biochemical; settings: read-out: IC50 ± SD (μM) ROCK2;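 also: kinase phosphorylates a coumarin/fluorescein FRET peptide, then a protease cleaves unphosphorylated peptide, read as donor/acceptor emission ratio after 400 nm excitation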
From the text: A) In the primary reaction, the Rho kinases phosphorylates a single serine or threonine residue in a synthetic FRET-peptide. This FRET-peptide is doubly labeled with a fluorophore at each end—coumarin (the FRET donor) on one end and fluorescein (the FRET acceptor) on the other—and also contains a single phosphorylation site which either overlaps with or lies adjacent to the proteolytic site. B) In the secondary reaction, a site-specific protease recognizes and cleaves the non-phosphorylated FRET-peptide. Cleavage disrupts FRET between the donor and acceptor fluorophores on the FRET-peptide, whereas uncleaved, phosphorylated FRET-peptides maintain FRET. Kinases phosphorylated FRET-peptides cannot be cleaved by the protease. […] Cleavage disrupts FRET and causes a decrease in the fluorescein fluorescence signal and a strong increase in the coumarin fluorescence signal. Therefore the extension of the phosphprylation can be measured by FRET-signal remaining the protease reaction. The assay uses a ratiometric method, which calculates the ratio of donor emission to acceptor emission (the emission ratio) after excitation of the donor fluorophore at 400 nm, to quantitate reaction progress.
All compounds were systematically screened against ROCK1 and ROCK2.

[2] = biological target: ROCK1 (Homo sapiens (Human), UniProt Q13464); assay: FRET-based Z'-Lyte kinase assay, ROCK1; type: biochemical; settings: for IC50: read-out: IC50 ± SD (μM) ROCK1; for fold decrease in activity compared to 1bo: comparator 1bo (comparator for 1bn not stated); for fold decrease in ROCK1 activity/potency compared to parent compound 1aa: comparator 1aa;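 as to all read-outs here: kinase phosphorylates a coumarin/fluorescein-labelled FRET peptide, then a protease cleaves unphosphorylated peptide, progress read as donor to acceptor emission ratio after 400 nm excitation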
ROCK1, sequence (Q13464 whole entry, species assumed): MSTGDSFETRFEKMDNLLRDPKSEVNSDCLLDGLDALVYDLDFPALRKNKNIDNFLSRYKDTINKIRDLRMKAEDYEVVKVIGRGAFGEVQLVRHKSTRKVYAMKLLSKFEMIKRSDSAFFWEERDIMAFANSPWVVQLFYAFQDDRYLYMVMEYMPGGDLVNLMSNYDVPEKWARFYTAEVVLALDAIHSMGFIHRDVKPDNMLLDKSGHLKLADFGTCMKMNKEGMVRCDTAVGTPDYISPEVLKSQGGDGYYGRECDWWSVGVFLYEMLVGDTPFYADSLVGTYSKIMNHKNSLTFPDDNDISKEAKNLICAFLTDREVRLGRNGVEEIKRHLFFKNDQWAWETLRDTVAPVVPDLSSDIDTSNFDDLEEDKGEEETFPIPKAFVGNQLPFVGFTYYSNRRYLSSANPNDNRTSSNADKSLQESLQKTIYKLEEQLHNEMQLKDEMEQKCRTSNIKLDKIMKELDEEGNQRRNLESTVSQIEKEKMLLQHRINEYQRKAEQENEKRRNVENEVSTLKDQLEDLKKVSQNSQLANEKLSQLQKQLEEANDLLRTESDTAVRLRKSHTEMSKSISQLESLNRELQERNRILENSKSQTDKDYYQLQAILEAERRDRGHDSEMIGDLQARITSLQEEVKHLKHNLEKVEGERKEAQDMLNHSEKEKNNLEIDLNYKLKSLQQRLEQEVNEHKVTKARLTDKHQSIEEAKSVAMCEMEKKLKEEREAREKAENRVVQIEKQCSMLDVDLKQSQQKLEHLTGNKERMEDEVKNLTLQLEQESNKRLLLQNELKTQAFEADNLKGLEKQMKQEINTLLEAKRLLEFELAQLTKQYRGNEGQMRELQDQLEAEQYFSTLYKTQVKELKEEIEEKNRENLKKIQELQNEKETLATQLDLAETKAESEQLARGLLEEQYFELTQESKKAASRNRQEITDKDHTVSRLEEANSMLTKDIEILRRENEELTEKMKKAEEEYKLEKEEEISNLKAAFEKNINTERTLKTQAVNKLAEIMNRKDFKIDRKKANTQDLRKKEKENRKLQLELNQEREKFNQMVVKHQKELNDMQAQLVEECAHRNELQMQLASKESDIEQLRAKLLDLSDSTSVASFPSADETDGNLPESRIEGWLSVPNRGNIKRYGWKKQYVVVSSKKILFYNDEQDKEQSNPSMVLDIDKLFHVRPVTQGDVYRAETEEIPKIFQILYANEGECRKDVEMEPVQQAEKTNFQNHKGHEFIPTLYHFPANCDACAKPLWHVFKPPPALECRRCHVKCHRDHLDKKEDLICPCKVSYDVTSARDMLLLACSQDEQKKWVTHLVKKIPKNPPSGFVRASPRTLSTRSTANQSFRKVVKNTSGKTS

ROCK2, sequence (O75116 whole entry, species assumed): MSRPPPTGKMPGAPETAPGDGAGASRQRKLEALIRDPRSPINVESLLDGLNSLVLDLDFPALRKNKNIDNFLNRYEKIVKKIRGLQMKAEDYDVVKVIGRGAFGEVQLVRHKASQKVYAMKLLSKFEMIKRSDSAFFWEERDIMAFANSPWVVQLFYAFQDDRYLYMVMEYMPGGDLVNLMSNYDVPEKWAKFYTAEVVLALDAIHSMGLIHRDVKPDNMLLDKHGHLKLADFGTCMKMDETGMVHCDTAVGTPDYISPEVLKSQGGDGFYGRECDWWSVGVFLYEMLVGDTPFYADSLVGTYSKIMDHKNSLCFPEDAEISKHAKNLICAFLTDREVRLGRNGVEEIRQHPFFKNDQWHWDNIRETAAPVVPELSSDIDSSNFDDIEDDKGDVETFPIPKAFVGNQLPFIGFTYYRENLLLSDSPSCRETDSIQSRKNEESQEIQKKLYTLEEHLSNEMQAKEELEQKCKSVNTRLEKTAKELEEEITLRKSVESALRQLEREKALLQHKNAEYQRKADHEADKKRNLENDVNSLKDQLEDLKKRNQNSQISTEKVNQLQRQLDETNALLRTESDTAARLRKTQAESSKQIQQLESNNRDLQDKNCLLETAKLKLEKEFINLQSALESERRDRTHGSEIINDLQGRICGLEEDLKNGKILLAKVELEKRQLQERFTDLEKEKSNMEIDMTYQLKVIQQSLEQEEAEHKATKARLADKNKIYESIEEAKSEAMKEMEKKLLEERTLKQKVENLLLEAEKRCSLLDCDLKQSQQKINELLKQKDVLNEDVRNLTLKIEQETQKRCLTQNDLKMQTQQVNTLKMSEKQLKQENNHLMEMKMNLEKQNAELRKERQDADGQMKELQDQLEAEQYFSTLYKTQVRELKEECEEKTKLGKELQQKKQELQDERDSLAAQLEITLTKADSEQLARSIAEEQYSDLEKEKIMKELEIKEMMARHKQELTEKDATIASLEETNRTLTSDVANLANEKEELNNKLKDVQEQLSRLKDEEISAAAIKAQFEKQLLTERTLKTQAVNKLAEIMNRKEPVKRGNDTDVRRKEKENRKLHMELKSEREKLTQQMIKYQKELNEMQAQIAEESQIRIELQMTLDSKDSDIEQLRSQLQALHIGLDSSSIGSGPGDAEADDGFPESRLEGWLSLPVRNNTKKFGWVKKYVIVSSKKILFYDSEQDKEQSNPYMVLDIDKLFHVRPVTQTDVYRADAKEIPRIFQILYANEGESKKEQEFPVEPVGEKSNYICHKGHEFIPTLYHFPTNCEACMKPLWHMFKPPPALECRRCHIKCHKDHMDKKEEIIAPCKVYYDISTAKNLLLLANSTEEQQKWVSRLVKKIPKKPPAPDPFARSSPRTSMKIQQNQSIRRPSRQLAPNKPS

Compound | IC50 [1] [µM] | IC50 [2] [µM] | fold decrease in activity compared to 1bo [2] [fold] | fold decrease in ROCK1 activity/potency compared to parent compound 1aa [2] [fold] | fold more potent/active than its enantiomer ([2]; comparator: enantiomer (1ai for 1ah, 1bf for 1be)) [fold] | fold loss of potency compared to 1at ([2]; comparator 1at) [fold]
O=C(NCc1ccc(O)cc1)Nc1nc(-c2ccncc2)cs1 [Compound 1ax, 1-(4-Hydroxybenzyl)-3-(4-(pyridin-4-yl)thiazol-2-yl)urea] | 0.14 ± 0.029 | 0.38 ± 0.046 | – | – | – | –
Nc1cccc(CNC(=O)Nc2nc(-c3ccncc3)cs2)c1 [Compound 1ay, 1-(3-Aminobenzyl)-3-(4-(pyridin-4-yl)thiazol-2-yl)urea] | 0.02 ± 0.008 | 0.05 ± 0.009 | 6 | – | – | –
Cc1cccc(CNC(=O)Nc2nc(-c3ccncc3)cs2)c1 [Compound 1ba, 1-(3-Methylbenzyl)-3-(4-(pyridin-4-yl)thiazol-2-yl)urea] | 0.12 ± 0.03 | 0.46 ± 0.08 | – | 3 | – | –
COc1cccc(CNC(=O)Nc2nc(-c3ccncc3)cs2)c1OC [Compound 1bc, 1-(2,3-Dimethoxybenzyl)-3-(4-(pyridin-4-yl)thiazol-2-yl)urea] | 19.7 ± 2.94 | 35.4 ± 6.78 | – | – | – | –
Cc1ccc(CNC(=O)Nc2nc(-c3ccncc3)cs2)cc1 [Compound 1bd, 1-(4-Methylbenzyl)-3-(4-(pyridin-4-yl)thiazol-2-yl)urea] | 2.05 ± 0.15 | 5.16 ± 0.51 | – | – | – | –
CC[C@@H](NC(=O)Nc1nc(-c2ccncc2)cs1)c1ccccc1 [Compound 1be, (R)-1-(1-Phenylpropyl)-3-(4-(pyridin-4-yl)thiazol-2-yl)urea] | 0.03 ± 0.01 | 0.09 ± 0.02 | – | 3.5 | 745 | –
CC[C@H](NC(=O)Nc1nc(-c2ccncc2)cs1)c1ccccc1 [Compound 1bf, (S)-1-(1-Phenylpropyl)-3-(4-(pyridin-4-yl)thiazol-2-yl)urea] | 22 ± 7.79 | 52.2 ± 3.64 | – | – | – | –
COc1cccc([C@H](C)NC(=O)Nc2nc(-c3ccncc3)cs2)c1 [Compound 1bg, (S)-1-(1-(3-Methoxyphenyl)ethyl)-3-(4-(pyridin-4-yl)thiazol-2-yl)urea] | 3.25 ± 0.96 | 18.7 ± 2.09 | – | – | – | –
O=C(Nc1nc(-c2ccncc2)cs1)NC(c1ccccc1)c1ccccc1 [Compound 1bi, 1-Benzhydryl-3-(4-(pyridin-4-yl)thiazol-2-yl)urea] | 0.53 ± 0.1 | 1.87 ± 0.54 | – | 12 | – | –
COC[C@@H](NC(=O)Nc1nc(-c2ccncc2)cs1)c1ccccc1 [Compound 1bj, (S)-1-(2-Methoxy-1-phenylethyl)-3-(4-(pyridin-4-yl)thiazol-2-yl)urea] | 0.03 ± 0.009 | 0.07 ± 0.005 | – | – | – | 3.5
COC[C@H](NC(=O)Nc1nc(-c2ccncc2)cs1)c1ccccc1 [Compound 1bk, (R)-1-(2-Methoxy-1-phenylethyl)-3-(4-(pyridin-4-yl)thiazol-2-yl)urea] | 11.5 ± 1.24 | 29.5 ± 3.28 | – | – | – | –
Nc1ccc(CNC(=O)Nc2nc(-c3ccncc3)cs2)cc1 [Compound 1bl, 1-(4-Aminobenzyl)-3-(4-(pyridin-4-yl)thiazol-2-yl)urea] | 17.4 ± 3.79 | 45.9 ± 5.15 | – | – | – | –
COCCOc1cccc(CNC(=O)Nc2nc(-c3ccncc3)cs2)c1 [Compound 1bm, 1-(3-(2-Methoxyethoxy)benzyl)-3-(4-(pyridin-4-yl)thiazol-2-yl)urea] | 0.24 ± 0.03 | 0.5 ± 0.05 | – | – | – | –
O=C(NCc1cccc2[nH]ccc12)Nc1nc(-c2ccncc2)cs1 [Compound 1bn, 1-((1H-indol-4-yl)methyl)-3-(4-(pyridin-4-yl)thiazol-2-yl)urea] | 31.1 ± 9.14 | 37.8 ± 7.81 | 470 | – | – | –
O=C(NCc1ccccc1O)Nc1nc(-c2ccncc2)cs1 [Compound 1bp, 1-(2-Hydroxybenzyl)-3-(4-(pyridin-4-yl)thiazol-2-yl)urea] | 0.28 ± 0.05 | 0.62 ± 0.019 | – | – | – | –
CNc1cccc(CNC(=O)Nc2nc(-c3ccncc3)cs2)c1 [Compound 1bq, 1-(3-(Methylamino)benzyl)-3-(4-(pyridin-4-yl)thiazol-2-yl)urea] | 0.24 ± 0.04 | 0.47 ± 0.013 | – | – | – | –
